Measured values: patent US20260000692A1, “Substituted N-(Pyridin-2-yl)Acetamide Derivatives as CDK12/13 Inhibitors” (Aurigene Oncology Limited, priority 2022, published 2026)
Where two headings read alike, the source gives them in different places.

Molecular target: CDK12 (Homo sapiens, UniProt Q9NYV4)
Assay: Biochemical assay for CDK12 (LANCE TR-FRET, IC50 determination)
Conditions: for IC50: CDK12, IC50 class; for inhibition at 10 µM: read-out: CDK12 % Inhibition @ 10 μM
How it was run: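 30 nM CDK12 phosphorylated 100 nM ULight-4E-BP1 (Thr37/Thr46) peptide at 100 µM ATP, as printed, in HEPES pH 7.5 buffer with MgCl2 and DTT. Compound and enzyme were preincubated 60 min, then reacted 60 min at room temperature before stopping with EDTA and Eu anti-phospho antibody. TR-FRET 665/615 ratio gave sigmoidal IC50 fits.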

Sequence of CDK12 (Q9NYV4 whole entry): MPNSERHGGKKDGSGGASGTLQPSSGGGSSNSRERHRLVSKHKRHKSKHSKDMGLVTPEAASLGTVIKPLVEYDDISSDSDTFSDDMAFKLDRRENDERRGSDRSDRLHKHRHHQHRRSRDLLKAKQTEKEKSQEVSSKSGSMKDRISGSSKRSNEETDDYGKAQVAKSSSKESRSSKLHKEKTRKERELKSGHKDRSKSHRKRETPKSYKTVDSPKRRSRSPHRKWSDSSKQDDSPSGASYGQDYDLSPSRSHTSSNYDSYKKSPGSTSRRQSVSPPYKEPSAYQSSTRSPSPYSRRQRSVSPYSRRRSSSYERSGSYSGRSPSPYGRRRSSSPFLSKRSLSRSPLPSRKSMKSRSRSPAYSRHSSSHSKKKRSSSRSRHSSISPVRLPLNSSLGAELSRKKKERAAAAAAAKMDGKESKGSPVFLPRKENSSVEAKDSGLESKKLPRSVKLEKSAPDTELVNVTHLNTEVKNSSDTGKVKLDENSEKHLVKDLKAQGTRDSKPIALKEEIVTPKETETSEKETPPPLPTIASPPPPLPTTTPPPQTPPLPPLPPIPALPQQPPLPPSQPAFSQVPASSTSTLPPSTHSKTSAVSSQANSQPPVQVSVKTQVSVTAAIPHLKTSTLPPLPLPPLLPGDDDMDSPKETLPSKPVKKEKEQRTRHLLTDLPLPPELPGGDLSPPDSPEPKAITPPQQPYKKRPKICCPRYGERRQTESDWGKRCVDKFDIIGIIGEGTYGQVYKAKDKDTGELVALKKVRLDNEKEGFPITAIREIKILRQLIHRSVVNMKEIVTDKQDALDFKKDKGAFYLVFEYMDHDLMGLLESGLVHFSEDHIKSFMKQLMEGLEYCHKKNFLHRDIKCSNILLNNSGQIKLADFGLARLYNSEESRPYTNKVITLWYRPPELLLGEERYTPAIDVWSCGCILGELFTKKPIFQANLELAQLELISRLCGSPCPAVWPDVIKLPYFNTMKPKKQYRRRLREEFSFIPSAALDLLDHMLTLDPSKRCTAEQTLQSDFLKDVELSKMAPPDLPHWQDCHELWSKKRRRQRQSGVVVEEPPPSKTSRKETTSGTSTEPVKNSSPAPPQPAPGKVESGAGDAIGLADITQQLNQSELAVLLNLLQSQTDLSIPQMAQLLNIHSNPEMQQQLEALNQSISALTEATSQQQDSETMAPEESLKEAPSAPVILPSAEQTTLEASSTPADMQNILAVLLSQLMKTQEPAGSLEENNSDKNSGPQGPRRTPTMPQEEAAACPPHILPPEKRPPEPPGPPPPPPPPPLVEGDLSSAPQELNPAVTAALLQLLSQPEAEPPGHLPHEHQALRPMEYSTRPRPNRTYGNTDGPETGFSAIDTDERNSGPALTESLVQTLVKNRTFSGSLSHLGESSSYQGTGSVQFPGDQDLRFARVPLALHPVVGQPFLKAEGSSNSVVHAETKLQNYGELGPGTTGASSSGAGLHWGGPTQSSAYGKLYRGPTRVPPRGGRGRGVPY
Sequence of CDK12 (O75909 whole entry partner): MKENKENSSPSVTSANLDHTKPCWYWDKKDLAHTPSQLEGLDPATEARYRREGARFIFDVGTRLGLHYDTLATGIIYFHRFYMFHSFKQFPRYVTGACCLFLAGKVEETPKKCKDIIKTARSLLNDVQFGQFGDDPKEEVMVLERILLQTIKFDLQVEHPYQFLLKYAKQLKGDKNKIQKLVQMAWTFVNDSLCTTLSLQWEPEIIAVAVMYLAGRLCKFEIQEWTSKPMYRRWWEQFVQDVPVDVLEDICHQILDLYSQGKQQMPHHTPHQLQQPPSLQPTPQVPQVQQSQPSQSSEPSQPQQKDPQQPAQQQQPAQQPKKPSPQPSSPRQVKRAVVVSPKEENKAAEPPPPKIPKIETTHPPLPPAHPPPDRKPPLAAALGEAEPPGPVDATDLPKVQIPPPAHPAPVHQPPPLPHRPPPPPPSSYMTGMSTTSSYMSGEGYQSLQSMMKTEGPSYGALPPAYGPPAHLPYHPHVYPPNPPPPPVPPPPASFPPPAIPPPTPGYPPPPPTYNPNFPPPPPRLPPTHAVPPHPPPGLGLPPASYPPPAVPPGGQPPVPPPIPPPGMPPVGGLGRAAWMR

Structure (SMILES)	IC50 (read-out: IC50 μM (in range))	inhibition at 10 µM (compound at 10 μM)	IC50 (IC50 μM (in range))	inhibition at 10 µM
COc1cc(NC(=O)Cc2ccc(C3CCN(C#N)CC3C)nc2)ncc1Cl (stereo not shown) [Compound 60, N-(5-chloro-4-methoxypyridin-2-yl)-2-(6-(1-cyano-3-methylpiperidin-4-yl)pyridin-3-yl)acetamide]	0.01 to 0.1 µM	87%	–	–
N#CN1CCC=C(c2ccc(CC(=O)Nc3cc(OC4CCOCC4)c(Cl)cn3)cn2)C1 [Compound 61, N-(5-chloro-4-((tetrahydro-2H-pyran-4-yl)oxy)pyridin-2-yl)-2-(1′-cyano-1′,2′,5′,6′-tetrahydro-[2,3′-bipyridin]-5-yl)acetamide]	< 0.01 µM	89%	–	–
CN1C2CCC1CC(Oc1cc(NC(=O)Cc3ccc(C4=CCCN(C#N)C4)nc3)ncc1Cl)C2 (stereo not shown) [Compound 62, N-(5-chloro-4-((8-methyl-8-azabicyclo[3.2.1]octan-3-yl)oxy)pyridin-2-yl)-2-(1′-cyano-1′,2′,5′,6′-tetrahydro-[2,3′-bipyridin]-5-yl)acetamide]	< 0.01 µM	96%	–	–
CC1CC(Oc2cc(NC(=O)Cc3ccc(C4=CCCN(C#N)C4)nc3)ncc2Cl)CCN1C (stereo not shown) [Compound 63, N-(5-chloro-4-((1,2-dimethylpiperidin-4-yl)oxy)pyridin-2-yl)-2-(1′-cyano-1′,2′,5′,6′-tetrahydro-[2,3′-bipyridin]-5-yl)acetamide]	< 0.01 µM	92%	–	–
COc1cc(NC(=O)Cc2ccc(C3=CCN(C#N)C(C)C3)nc2)ncc1Cl (stereo not shown) [Compound 65, N-(5-chloro-4-methoxypyridin-2-yl)-2-(1′-cyano-2′-methyl-1′,2′,3′,6′-tetrahydro-[2,4′-bipyridin]-5-yl)acetamide]	< 0.01 µM	87%	–	–
CN1CC2(CC(Oc3cc(NC(=O)Cc4ccc(C5=CCCN(C#N)C5)nc4)ncc3Cl)C2)C1 [Compound 69, N-(5-chloro-4-((2-methyl-2-azaspiro[3.3]heptan-6-yl)oxy)pyridin-2-yl)-2-(1′-cyano-1′,2′,5′,6′-tetrahydro-[2,3′-bipyridin]-5-yl)acetamide]	< 0.01 µM	93%	–	–
COc1cc(NC(=O)Cc2ccc(C3=CCN(C#N)CC3C)nc2)ncc1Cl (stereo not shown) [Compound 70, N-(5-chloro-4-methoxypyridin-2-yl)-2-(1′-cyano-3′-methyl-1′,2′,3′,6′-tetrahydro-[2,4′-bipyridin]-5-yl)acetamide]	< 0.01 µM	94%	–	–
COc1cc(NC(=O)Cc2ccc(C3=CC4CCC(C3)N4C#N)nc2)ncc1Cl (stereo not shown) [Compound 73, N-(5-chloro-4-methoxypyridin-2-yl)-2-(6-(8-cyano-8-azabicyclo[3.2.1]oct-2-en-3-yl)pyridin-3-yl)acetamide]	< 0.01 µM	87%	–	–
COc1cc(NC(=O)Cc2ccc(C3CC4CCC(C3)N4C#N)nc2)ncc1Cl (stereo not shown) [Compound 74, N-(5-chloro-4-methoxypyridin-2-yl)-2-(6-(8-cyano-8-azabicyclo[3.2.1]octan-3-yl)pyridin-3-yl)acetamide]	< 0.01 µM	100%	–	–
COc1cc(NC(=O)Cc2ccc(C3=CC4CN(C#N)CC4C3)nc2)ncc1Cl (stereo not shown) [Compound 75, N-(5-chloro-4-methoxypyridin-2-yl)-2-(6-(2-cyano-1,2,3,3a,4,6a-hexahydrocyclopenta[c]pyrrol-5-yl)pyridin-3-yl)acetamide]	< 0.01 µM	96%	–	–
COc1cc(NC(=O)Cc2ccc(C3CC4CN(C#N)CC4C3)nc2)ncc1Cl (stereo not shown) [Compound 76, N-(5-chloro-4-methoxypyridin-2-yl)-2-(6-(2-cyanooctahydrocyclopenta[c]pyrrol-5-yl)pyridin-3-yl)acetamide]	< 0.01 µM	90%	–	–
CN(C)C(=O)Oc1cc(NC(=O)Cc2ccc(C3=CCCN(C#N)C3)nc2)ncc1Cl [Compound 77, 5-chloro-2-(2-(1′-cyano-1′,2′,5′,6′-tetrahydro-[2,3′-bipyridin]-5-yl)acetamido)pyridin-4-yl dimethylcarbamate]	–	–	< 0.01 µM	79%
COc1cc(NC(=O)Cc2ccc(C3CCCN(C#N)C3)nc2)ncc1Cl (stereo not shown) [Compound 78, N-(5-chloro-4-methoxypyridin-2-yl)-2-(6-(1-cyanopiperidin-3-yl)pyridin-3-yl)acetamide]	0.01 to 0.1 µM	87%	–	–
COc1cc(NC(=O)Cc2ccc(C3=CC4CCC3CN4C#N)nc2)ncc1Cl (stereo not shown) [Compound 81, N-(5-chloro-4-methoxypyridin-2-yl)-2-(6-(2-cyano-2-azabicyclo[2.2.2]oct-5-en-5-yl)pyridin-3-yl)acetamide]	< 0.01 µM	87%	–	–
CNC(=O)C(C)Oc1cc(NC(=O)Cc2ccc(C3CCN(C#N)CC3)nc2)ncc1Cl (stereo not shown) [Compound 82, 2-((5-chloro-2-(2-(6-(1-cyanopiperidin-4-yl)pyridin-3-yl)acetamido)pyridin-4-yl)oxy)-N-methylpropanamide]	0.01 to 0.1 µM	87%	–	–
CNC(=O)C(C)Oc1cc(NC(=O)Cc2ccc(C3CCCN(C#N)C3)nc2)ncc1Cl (stereo not shown) [Compound 85, 2-((5-chloro-2-(2-(6-(1-cyanopiperidin-3-yl)pyridin-3-yl)acetamido)pyridin-4-yl)oxy)-N-methylpropanamide]	0.01 to 0.1 µM	92%	–	–

Structure (SMILES)	IC50 (read-out: IC50 μM (in range))	inhibition at 10 µM (compound at 10 μM)	IC50 (IC50 μM (in range))	inhibition at 10 µM
N#CN1CCCC(c2ccc(CC(=O)Nc3cc(O[C@@H]4CCOC4)c(Cl)cn3)cn2)C1 (stereo partly drawn) [Compound 92, N-(5-chloro-4-(((R)-tetrahydrofuran-3-yl)oxy)pyridin-2-yl)-2-(6-(1-cyanopiperidin-3-yl)pyridin-3-yl)acetamide]	0.01 to 0.1 µM	90%	–	–
N#CN1CCCC(c2ccc(CC(=O)Nc3cc(O[C@H]4CCOC4)c(Cl)cn3)cn2)C1 (stereo partly drawn) [Compound 95, N-(5-chloro-4-(((S)-tetrahydrofuran-3-yl)oxy)pyridin-2-yl)-2-(6-(1-cyanopiperidin-3-yl)pyridin-3-yl)acetamide]	0.01 to 0.1 µM	90%	–	–
N#CN1CCC(c2ccc(CC(=O)Nc3cc(O[C@@H]4CCOC4)c(Cl)cn3)cn2)CC1 [Compound 98, (R)-N-(5-chloro-4-((tetrahydrofuran-3-yl)oxy)pyridin-2-yl)-2-(6-(1-cyanopiperidin-4-yl)pyridin-3-yl)acetamide]	0.01 to 0.1 µM	87%	–	–
N#CN1CCC(c2ccc(CC(=O)Nc3cc(O[C@H]4CCOC4)c(Cl)cn3)cn2)CC1 [Compound 99, (S)-N-(5-chloro-4-((tetrahydrofuran-3-yl)oxy)pyridin-2-yl)-2-(6-(1-cyanopiperidin-4-yl)pyridin-3-yl)acetamide]	0.01 to 0.1 µM	95%	–	–
CN(C)C(=O)Oc1cc(NC(=O)Cc2ccc(C3=CCN(C#N)CC3)nc2)ncc1Cl [Compound 100, 5-chloro-2-(2-(1′-cyano-1′,2′,3′,6′-tetrahydro-[2,4′-bipyridin]-5-yl)acetamido)pyridin-4-yl dimethylcarbamate]	–	–	0.01 to 0.1 µM	77%
CN(C)C(=O)Oc1cc(NC(=O)Cc2ccc(C3CCN(C#N)CC3)nc2)ncc1Cl [Compound 101, 5-chloro-2-(2-(6-(1-cyanopiperidin-4-yl)pyridin-3-yl)acetamido)pyridin-4-yl dimethylcarbamate]	–	–	> 0.1 µM	86%
N#CN1CCC=C(c2ccc(CC(=O)Nc3ccccn3)cn2)C1 [Compound 102, 2-(1′-cyano-1′,2′,5′,6′-tetrahydro-[2,3′-bipyridin]-5-yl)-N-(pyridin-2-yl)acetamide]	> 0.1 µM	87%	–	–
N#CN1CCC=C(c2ccc(CC(=O)Nc3ccc(F)cn3)cn2)C1 [Compound 103, 2-(1′-cyano-1′,2′,5′,6′-tetrahydro-[2,3′-bipyridin]-5-yl)-N-(5-fluoropyridin-2-yl)acetamide]	0.01 to 0.1 µM	98%	–	–
Cc1ccc(NC(=O)Cc2ccc(C3=CCCN(C#N)C3)nc2)nc1 [Compound 104, 2-(1′-cyano-1′,2′,5′,6′-tetrahydro-[2,3′-bipyridin]-5-yl)-N-(5-methylpyridin-2-yl)acetamide]	0.01 to 0.1 µM	79%	–	–
N#CN1CCC=C(c2ccc(CC(=O)Nc3cc(Cl)c(Cl)cn3)cn2)C1 [Compound 105, 2-(1′-cyano-1′,2′,5′,6′-tetrahydro-[2,3′-bipyridin]-5-yl)-N-(4,5-dichloropyridin-2-yl)acetamide]	< 0.01 µM	100%	–	–
N#CN1CCC=C(c2ccc(CC(=O)Nc3ccc(C4CC4)cn3)cn2)C1 [Compound 106, 2-(1′-cyano-1′,2′,5′,6′-tetrahydro-[2,3′-bipyridin]-5-yl)-N-(5-cyclopropylpyridin-2-yl)acetamide]	< 0.01 µM	90%	–	–
CSc1ccc(NC(=O)Cc2ccc(C3=CCCN(C#N)C3)nc2)nc1 [Compound 107, 2-(1′-cyano-1′,2′,5′,6′-tetrahydro-[2,3′-bipyridin]-5-yl)-N-(5-(methylthio)pyridin-2-yl)acetamide]	0.01 to 0.1 µM	95%	–	–
N#CN1CCC=C(c2ccc(CC(=O)Nc3cnc(Cl)cn3)cn2)C1 [Compound 108, N-(5-chloropyrazin-2-yl)-2-(1′-cyano-1′,2′,5′,6′-tetrahydro-[2,3′-bipyridin]-5-yl)acetamide]	0.01 to 0.1 µM	85%	–	–
CN(C)c1cc(NC(=O)Cc2ccc(C3=CCCN(C#N)C3)nc2)ncc1Cl [Compound 109, N-(5-chloro-4-(dimethylamino)pyridin-2-yl)-2-(1′-cyano-1′,2′,5′,6′-tetrahydro-[2,3′-bipyridin]-5-yl)acetamide]	0.01 to 0.1 µM	89%	–	–
COc1cc(NC(=O)C(C)(C)c2ccc(C3=CCCN(C#N)C3)nc2)ncc1Cl [Compound 110, N-(5-chloro-4-methoxypyridin-2-yl)-2-(1′-cyano-1′,2′,5′,6′-tetrahydro-[2,3′-bipyridin]-5-yl)-2-methylpropanamide]	–	57%	–	–
